Data published in the supplement of paper PMC9663587.

compound: CCN1CCN(Cc2ccc(Nc3ncc(F)c(-c4cc(F)c5nc(C)n(C(C)C)c5c4)n3)nc2)CC1; test: increase in dead-cell fraction, 72 h; higher = more death; settings: 0.001 µM;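 further: breast cancer cell lines in 384-well plates, stained with Hoechst plus LIVE/DEAD far red dye and imaged, cells above an LDR intensity threshold counted dead, Hoechst-negative corpses included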

Row | Cell Line | increase in dead-cell fraction
1 | SUM159 | -0.0002
2 | SUM185PE | -0.0051
3 | SUM190PT | 0.001
4 | SUM229PE | -0.0006
5 | SUM1315 | 0.0105

same assay, conditions: 0.003162 µM

Row | Cell Line | increase in dead-cell fraction
6 | SUM159 | -0.0043
7 | SUM185PE | 0.0054
8 | SUM190PT | 0.0059
9 | SUM229PE | 0.004
10 | SUM1315 | 0.0024

same assay, conditions: 0.01 µM

Row | Cell Line | increase in dead-cell fraction
11 | SUM159 | -0.0052
12 | SUM185PE | 0.0159
13 | SUM190PT | 0.0009
14 | SUM229PE | -0.0023
15 | SUM1315 | -0.0018

same assay, conditions: 0.03162 µM

Row | Cell Line | increase in dead-cell fraction
16 | SUM159 | -0.0042
17 | SUM185PE | 0.0271
18 | SUM190PT | 0.0041
19 | SUM229PE | -0.0024
20 | SUM1315 | 0.0186

same assay, conditions: 0.1 µM

Row | Cell Line | increase in dead-cell fraction
21 | SUM159 | 0.0006
22 | SUM185PE | 0.0298
23 | SUM190PT | 0.0078
24 | SUM229PE | 0.0008
25 | SUM1315 | 0.0167

same assay, conditions: 0.3162 µM

Row | Cell Line | increase in dead-cell fraction
26 | SUM159 | 0.0029
27 | SUM185PE | 0.0411
28 | SUM190PT | 0.0015
29 | SUM229PE | -0.006
30 | SUM1315 | 0.025

same assay, conditions: 1 µM

Row | Cell Line | increase in dead-cell fraction
31 | SUM159 | 0.0118
32 | SUM185PE | 0.0307
33 | SUM190PT | -0.0004
34 | SUM229PE | 0.0054
35 | SUM1315 | 0.0225

same assay, conditions: 3.162 µM

Row | Cell Line | increase in dead-cell fraction
36 | SUM159 | 0.0126
37 | SUM185PE | 0.0469
38 | SUM190PT | 0.0076
39 | SUM229PE | 0.0064
40 | SUM1315 | 0.0197

same assay, conditions: 10 µM

Row | Cell Line | increase in dead-cell fraction
41 | SUM159 | 0.447
42 | SUM185PE | 0.04
43 | SUM190PT | 0.32
44 | SUM229PE | 0.0095
45 | SUM1315 | 0.132

compound: CN(C)C/C=C/C(=O)Nc1ccc(C(=O)N2CCC[C@@H](Nc3ncc(Cl)c(-c4c[nH]c5ccccc45)n3)C2)cc1 [THZ531]; test: as above; settings: 0.0001 µM

Row | Cell Line | increase in dead-cell fraction
46 | SUM159 | 0.0035
47 | SUM185PE | 0.0141
48 | SUM190PT | -0.0012
49 | SUM229PE | 0.0065
50 | SUM1315 | 0.0119

same assay, conditions: 0.0003162 µM

Row | Cell Line | increase in dead-cell fraction
51 | SUM159 | -0.0023
52 | SUM185PE | 0.0051
53 | SUM190PT | 0.0006
54 | SUM229PE | 0.0019
55 | SUM1315 | -0.0037

same assay, conditions: 0.001 µM

Row | Cell Line | increase in dead-cell fraction
56 | SUM159 | -0.002
57 | SUM185PE | -0.0125
58 | SUM190PT | 0.0192
59 | SUM229PE | -0.0006
60 | SUM1315 | -0.0061

same assay, conditions: 0.003162 µM

Row | Cell Line | increase in dead-cell fraction
61 | SUM159 | -0.003
62 | SUM185PE | -0.0076
63 | SUM190PT | 0.0068
64 | SUM229PE | 0.0039
65 | SUM1315 | 0.0067

same assay, conditions: 0.01 µM

Row | Cell Line | increase in dead-cell fraction
66 | SUM159 | 0.0062
67 | SUM185PE | -0.0143
68 | SUM190PT | -0.0033
69 | SUM229PE | -0.0022
70 | SUM1315 | 0.001

same assay, conditions: 0.03162 µM

Row | Cell Line | increase in dead-cell fraction
71 | SUM159 | -0.0033
72 | SUM185PE | -0.0254
73 | SUM190PT | 0.0143
74 | SUM229PE | -0.005
75 | SUM1315 | -0.0178

same assay, conditions: 0.1 µM

Row | Cell Line | increase in dead-cell fraction
76 | SUM159 | -0.0055
77 | SUM185PE | 0.0083
78 | SUM190PT | 0.0893
79 | SUM229PE | -0.0018
80 | SUM1315 | -0.0022

same assay, conditions: 0.3162 µM

Row | Cell Line | increase in dead-cell fraction
81 | SUM159 | -0.0016
82 | SUM185PE | 0.278
83 | SUM190PT | 0.636
84 | SUM229PE | 0.0175
85 | SUM1315 | 0.0155

same assay, conditions: 1 µM

Row | Cell Line | increase in dead-cell fraction
86 | SUM159 | 0.0161
87 | SUM185PE | 0.139
88 | SUM190PT | 0.44
89 | SUM229PE | 0.0884
90 | SUM1315 | 0.204

compound: CN(C)C/C=C/C(=O)Nc1ccc(C(=O)Nc2cccc(Nc3ncc(Cl)c(-c4c[nH]c5ccccc45)n3)c2)cc1 [THZ1]; test: as above; settings: 0.0001 µM

Row | Cell Line | increase in dead-cell fraction
91 | SUM159 | -0.005
92 | SUM185PE | -0.0025
93 | SUM190PT | -0.0051
94 | SUM229PE | 0.0012
95 | SUM1315 | 0.0131

same assay, conditions: 0.0003162 µM

Row | Cell Line | increase in dead-cell fraction
96 | SUM159 | -0.0055
97 | SUM185PE | 0.0107
98 | SUM190PT | -0.0051
99 | SUM229PE | 0.0126
100 | SUM1315 | -0.0262

same assay, conditions: 0.001 µM

Row | Cell Line | increase in dead-cell fraction
101 | SUM159 | -0.0004
102 | SUM185PE | -0.0054
103 | SUM190PT | -0.003
104 | SUM229PE | 0.0025
105 | SUM1315 | -0.0208

same assay, conditions: 0.003162 µM

Row | Cell Line | increase in dead-cell fraction
106 | SUM159 | -0.0006
107 | SUM185PE | 0.0295
108 | SUM190PT | 0.0428
109 | SUM229PE | 0.0048
110 | SUM1315 | 0.0035

same assay, conditions: 0.01 µM

Row | Cell Line | increase in dead-cell fraction
111 | SUM159 | 0.001
112 | SUM185PE | 0.0559
113 | SUM190PT | 0.193
114 | SUM229PE | 0.0291
115 | SUM1315 | -0.0115

same assay, conditions: 0.03162 µM

Row | Cell Line | increase in dead-cell fraction
116 | SUM159 | 0.0024
117 | SUM185PE | 0.216
118 | SUM190PT | 0.338
119 | SUM229PE | 0.0152
120 | SUM1315 | -0.0232

same assay, conditions: 0.1 µM

Row | Cell Line | increase in dead-cell fraction
121 | SUM159 | 0.0084
122 | SUM185PE | 0.224
123 | SUM190PT | 0.269
124 | SUM229PE | 0.0835
125 | SUM1315 | -0.0483

same assay, conditions: 0.3162 µM

Row | Cell Line | increase in dead-cell fraction
126 | SUM159 | 0.0412
127 | SUM185PE | 0.154
128 | SUM190PT | 0.106
129 | SUM229PE | 0.124
130 | SUM1315 | 0.0421

same assay, conditions: 1 µM

Row | Cell Line | increase in dead-cell fraction
131 | SUM159 | 0.212
132 | SUM185PE | 0.183
133 | SUM190PT | 0.13
134 | SUM229PE | 0.127
135 | SUM1315 | 0.61
